# Reference: US8912209B2, “Rock inhibitors” (Amakem NV, priority 2010, dated 2014)
# Like-named read-outs stand apart in the source and are kept apart here.
# How the values were obtained:
# ROCK II = target: T1, ROCK II (Homo sapiens, UniProt O75116); test: ROCK II kinase inhibition, Method 1 Proqinase setup (33P radioisotopic protein kinase assay); format: biochemical; details: 33P radioisotopic assay, 1 μM ATP, read-out: IC50 Meth. 1
# T1 construct: purchased Proqinase
# Outline: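 33P radiometric assay with recombinant kinase (0.5 nM) and S6 peptide substrate in 60 mM HEPES-NaOH pH 7.5, Mg2+/Mn2+, 1 μM ATP, 1% DMSO; 80 min at 30 °C. Stopped with H3PO4, washed, counted; IC50 determined.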
# ROCKα/ROCKII = target: T2, ROCKα/ROCKII (Homo sapiens, UniProt O75116); test: ROCK inhibition, Method 2 fluorescence polarization (FP) assay, ROCK IMAP Kit; format: biochemical; details: 10 μM ATP, read-out: IC50 Meth. 2
# T2 construct: purchased Upstate Biotechnology 14-451
# [1] = Stability towards drug metabolizing enzymes in lung S9; format: in vitro ADME; details: human, lung S9 from smokers with NADPH, UDPGA, PAPS and GSH, read-out: t½ human lung S9
# Protocol: i) C.2.2. Stability Towards Drug Metabolizing Enzymes in Lung S9
# A 1 μM solution of the ROCK inhibitors is incubated with a reaction mixture containing lung S9 (from smokers) as well as the cofactors NADPH, UDPGA, PAPS and GSH. Samples are collected at 0, 15, 30 and 60 minutes post incubation. Negative control samples incubated with ROCK inhibitors and S9 fraction in the absence of cofactors are run in parallel. By using LC-MS/MS analysis, the percent of ROCK compounds remaining at each time point, the metabolic half-life of the ROCK compounds (expressed in minutes) and the metabolic half-life of the control compounds are determined.
# [2] = Stability assay in rabbit aqueous humor; format: in vitro ADME; details: 1 μM in rabbit aqueous humor, LC-MS/MS; read-out: t½ rabbits AH
# Protocol: i) C.2.3. Stability Assay in Rabbit Aqueous Humor
# Compounds are incubated at a concentration of 1 μM in rabbit aqueous humor (AH). Samples are taken at fixed time points and the remnant of compound is determined by LC-MS/MS after protein precipitation.
# LPS-stimulated PBMC = test: Cellular assay using LPS-stimulated PBMC, TNF release (ELISA), in the absence and presence of plasma; format: cell-based
# Excerpt: C.1.2. Activity Against ROCK in a Cellular Assay Using LPS-Stimulated PBMC in the Absence and Presence of Plasma
# To ensure the stimulation of PBMC by LPS, the medium is enriched with LPS-binding protein (LBP) that will facilitate the delivery of LPS to the CD14 receptor and enhance the LPS-induced immune response. Cytokines secreted by activated PBMC include TNF, which is detected by means of a colorimetric ELISA. In the presence of an active compound, the release of TNF is inhibited in a concentration-dependent manner. Subsequently a control assay using the same set up in the presence of plasma is included.
# Guinea pig trachea rings = test: Smooth muscle relaxing activity in organ baths of guinea pig trachea (carbachol); details: Cavia porcellus; guinea pig trachea rings contracted with carbachol
# Protocol: C.1.3. Smooth Muscle Relaxing Activity of Generated Soft ROCK Inhibitors In Vitro Using Organ Baths of Guinea Pig Trachea
# Guinea pig trachea rings are prepared and incubated with a fixed concentration of the bronchoconstrictive agent carbachol. Then, increasing concentrations of the soft ROCK inhibitors are added and the contractive properties of the trachea measured for each of the compound concentrations. The study set-up allows the determination of an IC50, represented by the concentration of compound that induces a force equal to 50% of that observed for the vehicle-treated trachea.
# In addition retention on the target is assessed using the above described organ baths of guinea pig trachea. In brief, upon induction of maximal relaxation with the ROCK inhibitors, trachea rings are thoroughly washed. Then, carbachol is added again and contractive properties are measured to determine whether the inhibitory activity of the ROCK inhibitors is prolonged upon the washout. A prolonged inhibitory activity after the washout is highly indicative for a prolonged retention of the compound at the lungs in vivo.
# [3] = Stability assay in human plasma; format: in vitro ADME; details: 1 μM in human plasma, LC-MS/MS; read-out: t½ human plasma
# Protocol: (§1) C.2.1. Stability Assay in Human and/or Rat Plasma
# (§2) Compounds are incubated at a concentration of 1 μM in rat (mice or rabbit) or human plasma. Samples are taken at fixed time points and the remnant of compound is determined by LC-MS/MS after protein precipitation. Half life is expressed in minutes.
# [4] = Stability assay in rat plasma; format: in vitro ADME; details: 1 μM in rat plasma, LC-MS/MS; read-out: t½ rat plasma
# Protocol: as §1, §2
# T1 sequence (O75116 whole entry): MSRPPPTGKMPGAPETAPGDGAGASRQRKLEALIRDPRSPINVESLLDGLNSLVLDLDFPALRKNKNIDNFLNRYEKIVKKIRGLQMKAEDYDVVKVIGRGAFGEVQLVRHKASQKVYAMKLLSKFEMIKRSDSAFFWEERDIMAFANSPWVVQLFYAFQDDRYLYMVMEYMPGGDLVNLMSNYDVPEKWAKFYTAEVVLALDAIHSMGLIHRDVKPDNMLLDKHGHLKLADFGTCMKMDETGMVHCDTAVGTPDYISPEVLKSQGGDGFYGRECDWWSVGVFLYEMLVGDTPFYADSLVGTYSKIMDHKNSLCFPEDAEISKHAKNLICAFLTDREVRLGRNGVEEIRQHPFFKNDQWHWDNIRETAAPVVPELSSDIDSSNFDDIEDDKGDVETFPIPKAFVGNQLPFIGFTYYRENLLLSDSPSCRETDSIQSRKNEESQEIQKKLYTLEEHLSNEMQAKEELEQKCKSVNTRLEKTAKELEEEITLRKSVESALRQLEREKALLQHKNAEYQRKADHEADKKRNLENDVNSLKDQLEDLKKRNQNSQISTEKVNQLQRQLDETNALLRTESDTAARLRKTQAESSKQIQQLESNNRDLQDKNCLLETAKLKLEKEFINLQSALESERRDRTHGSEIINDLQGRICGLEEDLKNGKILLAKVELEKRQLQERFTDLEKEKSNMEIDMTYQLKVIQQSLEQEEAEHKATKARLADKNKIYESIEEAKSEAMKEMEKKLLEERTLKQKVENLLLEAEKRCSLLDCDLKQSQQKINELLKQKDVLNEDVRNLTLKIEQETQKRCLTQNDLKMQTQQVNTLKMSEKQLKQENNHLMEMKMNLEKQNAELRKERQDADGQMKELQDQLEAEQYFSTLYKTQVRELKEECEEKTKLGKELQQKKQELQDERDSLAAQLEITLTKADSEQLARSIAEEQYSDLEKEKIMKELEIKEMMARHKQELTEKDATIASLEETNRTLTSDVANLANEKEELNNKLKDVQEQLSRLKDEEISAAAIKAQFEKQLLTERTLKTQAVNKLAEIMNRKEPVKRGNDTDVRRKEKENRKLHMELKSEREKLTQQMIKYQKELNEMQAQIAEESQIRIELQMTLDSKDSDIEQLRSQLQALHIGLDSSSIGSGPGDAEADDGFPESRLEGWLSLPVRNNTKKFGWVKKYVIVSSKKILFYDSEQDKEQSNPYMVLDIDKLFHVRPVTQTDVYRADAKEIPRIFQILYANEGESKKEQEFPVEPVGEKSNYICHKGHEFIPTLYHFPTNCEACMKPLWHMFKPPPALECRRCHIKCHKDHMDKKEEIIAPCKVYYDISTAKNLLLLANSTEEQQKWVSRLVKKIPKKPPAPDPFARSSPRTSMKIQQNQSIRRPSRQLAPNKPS
# T2 sequence (O75116 whole entry): as above
Structure (SMILES),IC50 (ROCK II) [nM],IC50 (ROCKα/ROCKII) [nM],further results
"CC(N)c1ccc(C(=O)Nc2ccncc2F)cc1-c1cccc(C(=O)OCC2CC2)c1 (stereo not drawn) [Compound 37, 2′-(1-Amino-ethyl)-5′-(3-fluoro-pyridin-4-ylcarbamoyl)-biphenyl-3-carboxylic acid cyclopropylmethyl ester]",100 to 1000,< 100,
"CC(N)c1ccc(C(=O)Nc2ccncc2)cc1-c1c[nH]c(C(=O)Oc2ccccc2)c1 (stereo not drawn) [Compound 170, 4-[2-(1-Amino-ethyl)-5-(pyridin-4-ylcarbamoyl)-phenyl]-1H-pyrrole-2-carboxylic acid phenyl ester]",100 to 1000,< 100,
"CC(N)c1ccc(C(=O)Nc2ccncc2)cc1-c1cccc(OCCCSC2CCOC2=O)c1 (stereo not drawn) [Compound 131, 6-(1-Amino-ethyl)-3′-[3-(2-oxo-tetrahydro-furan-3-ylsulfanyl)-propoxy]-biphenyl-3-carboxylylic acid pyridin-4-ylamide]",100 to 1000,100 to 1000,
"CC(N)c1ccc(C(=O)Nc2ccncc2F)cc1-c1cccc(C(=O)OCC2CCCCO2)c1 (stereo not drawn) [Compound 47, 2′-(1-Amino-ethyl)-5′-(3-fluoro-pyridin-4-ylcarbamoyl)-biphenyl-3-carboxylic acid tetrahydro-pyran-2-ylmethyl ester]",100 to 1000,< 100,half-life at 1 μM [1]: > 60 min; half-life at 1 μM [3]: 9.8 min; half-life at 1 μM [4]: 4.5 min
"CCCOC(=O)CCc1cccc(-c2cc(C(=O)Nc3ccncc3)ccc2C(C)N)c1 (stereo not drawn) [Compound 166, 3-[2′-(1-Amino-ethyl)-5′-(pyridin-4-ylcarbamoyl)-biphenyl-3-yl]-propionic acid propyl ester]",100 to 1000,100 to 1000,
"COC(=O)COc1cccc(-c2cc(C(=O)Nc3ccncc3)ccc2CN)c1 [Compound 137, [2′-Aminomethyl-5′-(pyridin-4-ylcarbamoyl)-biphenyl-3-yloxy]-acetic acid methyl ester]",100 to 1000,,half-life at 1 μM [3]: 1.9 min; half-life at 1 μM [4]: < 1 min

# Now from value to compound, other results behind:
IC50 (ROCK II) [nM],IC50 (ROCKα/ROCKII) [nM],Structure (SMILES),further results
< 100,< 100,"CC(N)c1ccc(C(=O)Nc2ccncc2)cc1-c1cccc(C(=O)OCCO)c1 (stereo not drawn) [Compound 65, 2′-(1-Amino-ethyl)-5′-(pyridin-4-ylcarbamoyl)-biphenyl-3-carboxylic acid 2-hydroxy-ethyl ester]",half-life at 1 μM [1]: > 60 min
< 100,,"CCCOC(=O)c1cc(-c2cc(C(=O)Nc3ccncc3)ccc2C(C)N)c[nH]1 (stereo not drawn) [Compound 169, 4-[2-(1-Amino-ethyl)-5-(pyridin-4-ylcarbamoyl)-phenyl]-1H-pyrrole-2-carboxylic acid propyl ester]",half-life at 1 μM [2]: > 60 min
100 to 1000,< 100,"CC(N)c1ccc(C(=O)Nc2ccncc2)cc1-c1cccc(OC2CCOC2=O)c1 (stereo not drawn) [Compound 134, 6-(1-Amino-ethyl)-3′-(2-oxo-tetrahydro-furan-3-yloxy)-biphenyl-3-carboxylic acid pyridin-4-ylamide]",
< 100,< 100,"CC(N)c1ccc(C(=O)Nc2ccncc2)cc1-c1cccc(C(=O)OCC2CCCO2)c1 (stereo not drawn) [Compound 44, 2′-(1-Amino-ethyl)-5′-(pyridin-4-ylcarbamoyl)-biphenyl-3-carboxylic acid tetrahydro-furan-2-ylmethyl ester]",
100 to 1000,< 100,"CC(N)c1ccc(C(=O)Nc2ccncc2)cc1-c1cccc(CCC(=O)Oc2ccccc2)c1 (stereo not drawn) [Compound 167, 3-[2′-(1-Amino-ethyl)-5′-(pyridin-4-ylcarbamoyl)-biphenyl-3-yl]-propionic acid phenyl ester]",
100 to 1000,< 100,"CC(N)c1ccc(C(=O)Nc2ccncc2F)cc1-c1cccc(C(=O)OCC2CCCO2)c1 (stereo not drawn) [Compound 46, 2′-(1-Amino-ethyl)-5′-(3-fluoro-pyridin-4-ylcarbamoyl)-biphenyl-3-carboxylic acid tetrahydro-furan-2-ylmethyl ester]","IC50 (LPS-stimulated PBMC; in the presence of plasma, read-out: IC50 in the presence of plasma): > 10000 nM; IC50 (LPS-stimulated PBMC; without plasma, read-out: IC50 (assay without plasma)): 120 nM; half-life at 1 μM [2]: > 60 min; IC50 (Guinea pig trachea rings): 500 nM; half-life at 1 μM [1]: 53 min; half-life at 1 μM [3]: 1.9 min; half-life at 1 μM [4]: 5.8 min"
< 100,< 100,"CCOC(=O)c1cccc(-c2cc(C(=O)Nc3ccncc3)ccc2C(C)N)c1 (stereo not drawn) [Compound 8, 2′-(1-Amino-ethyl)-5′-(pyridin-4-ylcarbamoyl)-biphenyl-3-carboxylic acid ethyl ester]",
< 100,,"CCSC(=O)c1cccc(-c2cc(C(=O)Nc3ccncc3)ccc2CN)c1 [Compound 97, 2′-Aminomethyl-5′-(pyridin-4-ylcarbamoyl)-biphenyl-3-carbothioic acid S-ethyl ester]",half-life at 1 μM [3]: 44 min; half-life at 1 μM [4]: 38 min
< 100,< 100,"CC(N)c1ccc(C(=O)Nc2ccncc2)cc1-c1cccc(C(=O)OCC2CCCCO2)c1 (stereo not drawn) [Compound 45, 2′-(1-Amino-ethyl)-5′-(pyridin-4-ylcarbamoyl)-biphenyl-3-carboxylic acid tetrahydro-pyran-2-ylmethyl ester]",
< 100,100 to 1000,"CC(N)c1ccc(C(=O)Nc2ccncc2)cc1-c1cccc(C(=O)OCCCOc2ccccc2)c1 (stereo not drawn) [Compound 88, 2′-(1-Amino-ethyl)-5′-(pyridin-4-ylcarbamoyl)-biphenyl-3-carboxylic acid 3-phenoxy-propyl ester]",
